Measured values from ChEMBL document CHEMBL1127120, “Benzofuran based angiotensi II antagonists related to GR117289: Part II; amino acid amides” (Bioorg Med Chem Lett, 1993).
Calls of active or inactive are those of the source. No cut-off for these calls is given here.

Columns and labels:
[1] = biological target: T1, Type-1 angiotensin II receptor (Oryctolagus cuniculus) (UniProt P34976); experiment: Affinity for Angiotensin II receptor, type 1 as antagonism of angII contractile effect in rabbit isolated thoracic aorta; format: functional, tissue-based
T1 sequence (whole entry): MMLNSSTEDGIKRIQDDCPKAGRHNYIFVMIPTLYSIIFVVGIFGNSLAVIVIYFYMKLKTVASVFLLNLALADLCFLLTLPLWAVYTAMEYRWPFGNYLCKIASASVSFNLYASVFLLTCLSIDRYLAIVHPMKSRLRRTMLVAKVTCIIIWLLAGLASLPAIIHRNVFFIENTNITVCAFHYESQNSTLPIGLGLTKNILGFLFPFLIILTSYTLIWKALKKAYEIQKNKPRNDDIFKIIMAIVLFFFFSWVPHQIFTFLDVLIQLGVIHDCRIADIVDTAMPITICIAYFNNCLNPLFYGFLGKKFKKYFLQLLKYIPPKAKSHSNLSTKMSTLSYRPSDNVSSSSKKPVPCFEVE

Rattus norvegicus [2] = species: Rattus norvegicus; experiment: Oral activity in renal artery ligated rat model was determined; no significant activity.; format: functional, organism-based
Rattus norvegicus [3] = experiment: Oral activity in renal artery ligated rat model was determined; excellent significant activity causing large and sustained fall in blood pressure at a dose of 1 mg/Kg.; format: functional, organism-based

SMILES	pKB [1]	Activity (Rattus norvegicus [2])	Activity (Rattus norvegicus [3])
CCCCc1ncc(C=C(Cc2cccs2)C(=O)O)n1Cc1ccc2oc(-c3ccccc3-c3nn[nH]n3)c(Br)c2c1	10.9		
CCCCc1nc(Cl)c(C(=O)NCC(N)=O)n1Cc1ccc2oc(-c3ccccc3-c3nn[nH]n3)c(Br)c2c1	9.4	inactive	
CCCCc1nc(Cl)c(C(=O)NCC(=O)O)n1Cc1ccc2oc(-c3ccccc3-c3nn[nH]n3)c(Br)c2c1	9.4	inactive	
CCCCc1nc(Cl)c(C(=O)NCC(=O)OCC)n1Cc1ccc2oc(-c3ccccc3-c3nn[nH]n3)c(Br)c2c1	9.3		Active
CCCCc1nc(Cl)c(C(=O)N[C@@H](C(=O)O)[C@H](C)CC)n1Cc1ccc2oc(-c3ccccc3-c3nn[nH]n3)c(Br)c2c1	9.2	inactive	

Now from value to molecule, other results behind:

pKB [1]	SMILES	Activity (Rattus norvegicus [2])	Activity (Rattus norvegicus [3])
8.9	CCCCc1nc(Cl)c(C(=O)N[C@@H](C)C(=O)O)n1Cc1ccc2oc(-c3ccccc3-c3nn[nH]n3)c(Br)c2c1	inactive	
9	CCCCc1nc(Cl)c(C(=O)N[C@H](C)C(=O)O)n1Cc1ccc2oc(-c3ccccc3-c3nn[nH]n3)c(Br)c2c1	inactive	
8	CCCCc1nc(Cl)c(C(=O)N[C@H](Cc2ccccc2)C(=O)O)n1Cc1ccc2oc(-c3ccccc3-c3nn[nH]n3)c(Br)c2c1	inactive	
